{"source": "patent US5849536A", "about": "“Cloning and production of human von willebrand factor GPIb binding domain polypeptides and methods of using same” (Bio-Technology General Corp., priority 1994, dated 1998)", "system": "rat platelet rich plasma (PRP)", "test": "vWF-dependent platelet aggregation assay in rat platelet rich plasma", "type": "cell-based", "details": "ristocetin up to 5.0 mg/ml, no additional agent", "protocol": "This is a standardized von Willebrand Factor (vWF)-dependent aggregation assay using human or rat platelet rich plasma (PRP). The addition of various concentrations of unfractionated Bothrops jararaca venom (BJV), which includes botrocetin and an additional thrombin-like component, or ristocetin results in an aggregatory response in the absence of any additional agent. Using ristocetin (1.5 mg/ml) as the agonist 43 μg/ml VCL abolished the aggregation of human PRP."}
{"substance": "ristocetin", "values": [{"measurement": "aggregation of rat PRP induced by the agonist", "value": "did not cause measurable aggregation"}]}
